Reference: US20070197957A1, “Implantable sensors, implantable pumps and anti-scarring drug combinations” (priority 2005, published 2007)

Experiments:
[1] = system: C. glabrata; assay: antifungal activity against C. glabrata; type: cell-based
[2] = potentiation of immunosuppressive agents
[3] = cited from earlier work; for solubility in alcohol / ethanol: alcohol or ethanol
[4] = system: GRE reporter plasmid; assay: transactivation of a transfected GRE reporter plasmid in T cells; type: cell-based
[5] = system: TNF-α; assay: acute in vivo model of inflammation (LPS-induced TNF-α production); settings: amoxapine alone or reduced dose prednisolone alone
[6] = target: T1, glucocorticoid receptor (Homo sapiens, UniProt P04150); assay: glucocorticoid receptor trafficking (mechanism study); type: cell-based
T1 construct: host or cells: T cells are named only for the GRE reporter experiment in the same sentence

[7] = system: NFAT; assay: NFAT activation, translocation and transactivation; type: cell-based
[8] = system: p38 and JNK; assay: p38 and JNK activation; type: cell-based
[9] = system: carrageenan-induced paw edema; assay: Rat carrageenan-induced paw edema model, paw swelling; type: in vivo; settings: amoxapine alone at 2.26 mg/kg
Experimental: A dose-range finding study was performed to determine the anti-inflammatory activity of various ratios of methyl prednisolone acetate and amoxapine in a rat carrageenan-induced paw edema model. […] The molar ratio of methyl prednisolone acetate to amoxapine ranged from 1:1 to 1:300, using total doses of methyl prednisolone acetate of 0.01, 0.03 or 0.1 mg/kg.
The test agent (a combination of methyl prednisolone acetate and amoxapine), vehicle control, or reference agents (methyl prednisolone acetate, amoxapine, or Depo-Medrol®) were administered in the left hind foot pad of rats. After 60 minutes, paw edema was induced by injection of 100 μl of 1% carrageenan in the same foot pad. The paw volume was measured with a water displacement plethysmometer immediately prior to test agent injection (T-1h), at the time of carrageenan injection (T0h), and at T6h. Animals were euthanized by carbon dioxide inhalation. Paw tissue samples were collected and flash frozen in liquid nitrogen. Samples were assayed for TNF-α by enzyme-linked immunoassay (ELISA).

[10] = chronic in vivo arthritis model (adjuvant model), joint swelling; settings: amoxapine alone or reduced dose prednisolone alone
[11] = system: ERK; assay: ERK activation; type: cell-based
[12] = system: NFkB and AP1; assay: NFkB and AP1 activation; type: cell-based
[13] = system: mast cells and eosinophil
[14] = system: E. coli UB1005 C498; assay: MIC by microtitre broth dilution; type: cell-based; settings: Mueller Hinton broth, 37° C., 24 h, aerobic
Experimental: (§1) MIC assays were conducted essentially as described by Amsterdam, D. 1996, “Susceptibility testing of antimicrobials in liquid media”, p. 52-111, in Loman, V., ed. Antibiotics in laboratory medicine, 4th ed. Williams and Wilkins, Baltimore, Md.

[15] = system: S. epidermidis C621; assay: MIC by microtitre broth dilution; type: cell-based; settings: Mueller Hinton broth, 37° C., 24 h, aerobic
Experimental: as §1

[16] = system: K. pneumoniae ATCC13883 C238; assay: MIC by microtitre broth dilution; type: cell-based; settings: Mueller Hinton broth, 37° C., 24 h, aerobic
Experimental: as §1

[17] = system: S. pyogenes C721; assay: MIC by microtitre broth dilution; type: cell-based; settings: Todd Hewitt broth, 37° C., 24 h, aerobic
Experimental: as §1

[18] = system: S. aureus ATCC25923 C622; assay: MIC by microtitre broth dilution; type: cell-based; settings: Mueller Hinton broth, 37° C., 24 h, aerobic
Experimental: as §1

[19] = system: P. aeruginosa PAE/K799 H187; assay: MIC by microtitre broth dilution; type: cell-based; settings: Mueller Hinton broth, 37° C., 24 h, aerobic
Experimental: as §1

[20] = target: protein tyrosine phosphatase 1B (PTP1B) (Homo sapiens, UniProt P18031); settings: cited from earlier work
[21] = system: phosphatases of regenerating liver (PRL); settings: cited from earlier work
[22] = system: endo-exonuclease; settings: cited from earlier work

T1 sequence (P04150 whole entry, species assumed): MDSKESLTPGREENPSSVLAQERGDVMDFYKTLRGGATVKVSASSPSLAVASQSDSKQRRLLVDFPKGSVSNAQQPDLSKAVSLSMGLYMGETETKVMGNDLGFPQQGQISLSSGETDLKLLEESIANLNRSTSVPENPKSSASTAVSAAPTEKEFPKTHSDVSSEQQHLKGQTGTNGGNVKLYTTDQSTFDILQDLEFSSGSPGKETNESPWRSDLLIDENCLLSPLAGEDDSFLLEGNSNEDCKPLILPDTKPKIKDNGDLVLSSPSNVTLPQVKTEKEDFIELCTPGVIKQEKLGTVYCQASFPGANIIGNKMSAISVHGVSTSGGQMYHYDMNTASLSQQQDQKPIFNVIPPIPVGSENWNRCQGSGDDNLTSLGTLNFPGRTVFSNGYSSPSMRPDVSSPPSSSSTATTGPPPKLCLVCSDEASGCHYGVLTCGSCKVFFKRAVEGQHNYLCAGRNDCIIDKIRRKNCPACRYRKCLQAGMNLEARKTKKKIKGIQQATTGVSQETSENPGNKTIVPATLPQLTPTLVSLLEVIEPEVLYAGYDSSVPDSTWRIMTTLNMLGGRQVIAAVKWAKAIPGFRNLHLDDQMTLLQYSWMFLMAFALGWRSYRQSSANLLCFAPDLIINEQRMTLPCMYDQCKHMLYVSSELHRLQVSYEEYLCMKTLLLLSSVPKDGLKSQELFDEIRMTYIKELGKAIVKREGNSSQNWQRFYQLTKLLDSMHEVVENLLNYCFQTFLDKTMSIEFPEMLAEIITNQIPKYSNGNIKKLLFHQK
Sequence of protein tyrosine phosphatase 1B (PTP1B) (P18031 whole entry): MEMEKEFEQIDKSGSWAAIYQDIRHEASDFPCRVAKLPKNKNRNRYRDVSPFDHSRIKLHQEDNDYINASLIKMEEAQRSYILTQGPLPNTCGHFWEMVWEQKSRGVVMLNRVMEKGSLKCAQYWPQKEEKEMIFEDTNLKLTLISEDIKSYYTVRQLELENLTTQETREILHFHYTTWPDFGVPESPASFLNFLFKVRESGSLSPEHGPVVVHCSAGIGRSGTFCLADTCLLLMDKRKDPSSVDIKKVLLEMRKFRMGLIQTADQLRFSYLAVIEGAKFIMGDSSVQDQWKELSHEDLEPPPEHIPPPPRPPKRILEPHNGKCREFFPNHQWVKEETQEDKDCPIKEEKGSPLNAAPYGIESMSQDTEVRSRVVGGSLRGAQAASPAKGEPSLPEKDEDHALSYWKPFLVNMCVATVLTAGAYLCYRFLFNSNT

For `CCC(C)n1ncn(-c2ccc(N3CCN(c4ccc(OC[C@H]5CO[C@](Cn6cncn6)(c6ccc(Cl)cc6Cl)O5)cc4)CC3)cc2)c1=O` (mixture of isomers) [itraconazole], the “enhancement of antifungal activity by a manganese compound” value (“enhancement of antifungal activity” below) [1] was “enhances”.

With `CCN(CC)C(C)CN1c2ccccc2Sc2ccccc21` (stereo not drawn) [Ethopropazine, ethopropazine] the “effect on potency of an immunosuppressive agent (e.g. cyclosporine)” value (“effect on potency” for short) [2] was “increases the potency”.

In the case of `CN(C)C(=O)C(CCN1CCC(O)(c2ccc(Cl)cc2)CC1)(c1ccccc1)c1ccccc1` [Loperamide], the “effect on potency” value [2] is reported as “increase the potency”.

For `Nc1ccc(/N=N/c2ccccc2)c(N)n1` [Phenazopyridine, phenazopyridine], the “solubility in alcohol / ethanol” value [3] is given as “slightly soluble in water and alcohol” and the “solubility in water” value ([3]; water) is given as “slightly soluble in water and alcohol”.

For `NC(=O)c1ncn([C@@H]2O[C@H](CO)[C@@H](O)[C@H]2O)n1` [Ribavirin, ribavirin], the “solubility in alcohol / ethanol” value [3] is listed as “only slightly soluble”.

For `Clc1ccc2c(c1)C(N1CCNCC1)=Nc1ccccc1O2` [amoxapine], the “potentiation of prednisolone's ability to transactivate a GRE reporter plasmid” value [4] was “does not potentiate”, the “benefit of the single agent” value [5] was “modest or no benefit” and the “promotion of glucocorticoid receptor trafficking” value [6] was “does not promote”. The “effect on NFAT activation, translocation and transactivation” value [7] was “block”, the “effect on p38 and JNK activation” value [8] was “Inhibition” and the “paw edema compared with vehicle treatment, in words” value [9] was “not significantly different from the vehicle treatment”. The “benefit of the single agent” value [10] was “modest or no benefit”, the “effect on ERK activation” value [11] was “unaffected” and the “effect on NFkB and AP1 activation” value [12] was “partially inhibits”.

For `CC[C@H](C)C[C@H](C)CCCCCCCCC(=O)N[C@H]1C[C@@H](O)[C@@H](NCCN)NC(=O)[C@@H]2[C@@H](O)CCN2C(=O)[C@H]([C@H](O)CCN)NC(=O)[C@H]([C@H](O)[C@@H](O)c2ccc(O)cc2)NC(=O)[C@@H]2C[C@@H](O)CN2C(=O)[C@H]([C@@H](C)O)NC1=O` [caspofungin], the “enhancement of antifungal activity” value [1] was “enhances”.

For `OC(Cn1cncn1)(Cn1cncn1)c1ccc(F)cc1F` [fluconazole], the “enhancement of antifungal activity” value [1] was “enhances”.

For `CCOC(=O)N1CCC(=C2c3ccc(Cl)cc3CCc3cccnc32)CC1` [loratadine], the “effect on mast cells and eosinophil activation” value [13] was “inhibits”.

For `CNCCCC12CCC(c3ccccc31)c1ccccc12` [maprotiline], the “effect on potency” value [2] was “increases the potency”.

In the case of `CN(Cc1cnc2nc(N)nc(N)c2n1)c1ccc(C(=O)N[C@@H](CCC(=O)O)C(=O)O)cc1` [methotrexate], the “Minimum inhibitory concentration, E. coli UB1005 C498 wt Gram−” value [14] is reported as “N”, the “Minimum inhibitory concentration, S. epidermidis C621 wt Gram+” value [15] is reported as “N” and the “Minimum inhibitory concentration, K. pneumoniae ATCC13883 C238 wt Gram−” value [16] is reported as 10^−6 Molar. The “Minimum inhibitory concentration, S. pyogenes C721 wt Gram+” value [17] was 10^−6 Molar, the “Minimum inhibitory concentration, S. aureus ATCC25923 C622 wt Gram+” value [18] was 10^−5 Molar and the “Minimum inhibitory concentration, P. aeruginosa PAE/K799 H187 Wt Gram−” value [19] was “N”.

For `O=C1c2c(O)ccc(O)c2C(=O)c2c(NCCNCCO)ccc(NCCNCCO)c21` [mitoxantrone], the “Minimum inhibitory concentration, E. coli UB1005 C498 wt Gram−” value [14] was 10^−5 Molar, the “Minimum inhibitory concentration, S. epidermidis C621 wt Gram+” value [15] was 10^−5 Molar and the “Minimum inhibitory concentration, K. pneumoniae ATCC13883 C238 wt Gram−” value [16] was 10^−6 Molar. For the same molecule, the “Minimum inhibitory concentration, S. pyogenes C721 wt Gram+” value [17] was 10^−6 Molar, the “Minimum inhibitory concentration, S. aureus ATCC25923 C622 wt Gram+” value [18] was 10^−5 Molar and the “Minimum inhibitory concentration, P. aeruginosa PAE/K799 H187 Wt Gram−” value [19] was 10^−5 Molar.

In the case of `N=C(N)c1ccc(OCCCCCOc2ccc(C(=N)N)cc2)cc1` [pentamidine], the “inhibition of PTP1B” value [20] is listed as “effective inhibitor”, the “inhibition of oncogenic phosphatases of regenerating liver (PRL)” value [21] is listed as “potent inhibitor” and the “inhibition of endo-exonuclease activity” value [22] is listed as “inhibit”.

With `CN(C/C=C/C#CC(C)(C)C)Cc1cccc2ccccc12.Cl` [terbinafine] the “enhancement of antifungal activity” value [1] was “enhances”.

With `Oc1cc(Cl)ccc1Oc1ccc(Cl)cc1Cl` [triclosan] the “effect on potency” value [2] was “increases the potency”.

In the case of `Nc1ncnc2c1ccn2[C@@H]1O[C@H](CO)[C@@H](O)[C@H]1O` [tubercidin], the “Minimum inhibitory concentration, E. coli UB1005 C498 wt Gram−” value [14] is reported as “N”, the “Minimum inhibitory concentration, S. epidermidis C621 wt Gram+” value [15] is reported as “N” and the “Minimum inhibitory concentration, K. pneumoniae ATCC13883 C238 wt Gram−” value [16] is reported as “N”. For the same molecule, the “Minimum inhibitory concentration, S. pyogenes C721 wt Gram+” value [17] was “N”, the “Minimum inhibitory concentration, S. aureus ATCC25923 C622 wt Gram+” value [18] was “N” and the “Minimum inhibitory concentration, P. aeruginosa PAE/K799 H187 Wt Gram−” value [19] was “N”.
